Test results as given in US20100184989A1, “De Novo Synthesis of Conjugates” (Nektar Therapeutics, priority 2007, published 2010).

target: calcium channel type L (Rattus norvegicus, UniProt P22002); assay: Calcium channel type L binding assay, [3H]Nitrendipine displacement; settings: rat cortical membranes; [3H]Nitrendipine 0.2 nM; 50 mM TRIS-HCl pH 7.7, 25° C., 60 minutes; nifedipine reference value given beside each test compound
Experimental: In the assay, rat cortical membranes were used as a receptor source and the radioligand [^3H]Nitrendipine (70-87 Ci/mmol) was used at a final ligand concentration of 0.2 nM. […] The reactions were carried out in 50 mM TRIS-HCl (pH 7.7) at 25° C. for 60 minutes. The reaction was terminated by rapid vacuum filtration onto glass fiber filters. Radioactivity trapped onto the filters was determined and compared to control values in order to ascertain any interactions of test compound with the nitredipine binding site (Gould, Murphy, and Snyder. Molecular Pharmacology 25, 235-241 (1984)).

calcium channel type L, sequence (P22002 whole entry): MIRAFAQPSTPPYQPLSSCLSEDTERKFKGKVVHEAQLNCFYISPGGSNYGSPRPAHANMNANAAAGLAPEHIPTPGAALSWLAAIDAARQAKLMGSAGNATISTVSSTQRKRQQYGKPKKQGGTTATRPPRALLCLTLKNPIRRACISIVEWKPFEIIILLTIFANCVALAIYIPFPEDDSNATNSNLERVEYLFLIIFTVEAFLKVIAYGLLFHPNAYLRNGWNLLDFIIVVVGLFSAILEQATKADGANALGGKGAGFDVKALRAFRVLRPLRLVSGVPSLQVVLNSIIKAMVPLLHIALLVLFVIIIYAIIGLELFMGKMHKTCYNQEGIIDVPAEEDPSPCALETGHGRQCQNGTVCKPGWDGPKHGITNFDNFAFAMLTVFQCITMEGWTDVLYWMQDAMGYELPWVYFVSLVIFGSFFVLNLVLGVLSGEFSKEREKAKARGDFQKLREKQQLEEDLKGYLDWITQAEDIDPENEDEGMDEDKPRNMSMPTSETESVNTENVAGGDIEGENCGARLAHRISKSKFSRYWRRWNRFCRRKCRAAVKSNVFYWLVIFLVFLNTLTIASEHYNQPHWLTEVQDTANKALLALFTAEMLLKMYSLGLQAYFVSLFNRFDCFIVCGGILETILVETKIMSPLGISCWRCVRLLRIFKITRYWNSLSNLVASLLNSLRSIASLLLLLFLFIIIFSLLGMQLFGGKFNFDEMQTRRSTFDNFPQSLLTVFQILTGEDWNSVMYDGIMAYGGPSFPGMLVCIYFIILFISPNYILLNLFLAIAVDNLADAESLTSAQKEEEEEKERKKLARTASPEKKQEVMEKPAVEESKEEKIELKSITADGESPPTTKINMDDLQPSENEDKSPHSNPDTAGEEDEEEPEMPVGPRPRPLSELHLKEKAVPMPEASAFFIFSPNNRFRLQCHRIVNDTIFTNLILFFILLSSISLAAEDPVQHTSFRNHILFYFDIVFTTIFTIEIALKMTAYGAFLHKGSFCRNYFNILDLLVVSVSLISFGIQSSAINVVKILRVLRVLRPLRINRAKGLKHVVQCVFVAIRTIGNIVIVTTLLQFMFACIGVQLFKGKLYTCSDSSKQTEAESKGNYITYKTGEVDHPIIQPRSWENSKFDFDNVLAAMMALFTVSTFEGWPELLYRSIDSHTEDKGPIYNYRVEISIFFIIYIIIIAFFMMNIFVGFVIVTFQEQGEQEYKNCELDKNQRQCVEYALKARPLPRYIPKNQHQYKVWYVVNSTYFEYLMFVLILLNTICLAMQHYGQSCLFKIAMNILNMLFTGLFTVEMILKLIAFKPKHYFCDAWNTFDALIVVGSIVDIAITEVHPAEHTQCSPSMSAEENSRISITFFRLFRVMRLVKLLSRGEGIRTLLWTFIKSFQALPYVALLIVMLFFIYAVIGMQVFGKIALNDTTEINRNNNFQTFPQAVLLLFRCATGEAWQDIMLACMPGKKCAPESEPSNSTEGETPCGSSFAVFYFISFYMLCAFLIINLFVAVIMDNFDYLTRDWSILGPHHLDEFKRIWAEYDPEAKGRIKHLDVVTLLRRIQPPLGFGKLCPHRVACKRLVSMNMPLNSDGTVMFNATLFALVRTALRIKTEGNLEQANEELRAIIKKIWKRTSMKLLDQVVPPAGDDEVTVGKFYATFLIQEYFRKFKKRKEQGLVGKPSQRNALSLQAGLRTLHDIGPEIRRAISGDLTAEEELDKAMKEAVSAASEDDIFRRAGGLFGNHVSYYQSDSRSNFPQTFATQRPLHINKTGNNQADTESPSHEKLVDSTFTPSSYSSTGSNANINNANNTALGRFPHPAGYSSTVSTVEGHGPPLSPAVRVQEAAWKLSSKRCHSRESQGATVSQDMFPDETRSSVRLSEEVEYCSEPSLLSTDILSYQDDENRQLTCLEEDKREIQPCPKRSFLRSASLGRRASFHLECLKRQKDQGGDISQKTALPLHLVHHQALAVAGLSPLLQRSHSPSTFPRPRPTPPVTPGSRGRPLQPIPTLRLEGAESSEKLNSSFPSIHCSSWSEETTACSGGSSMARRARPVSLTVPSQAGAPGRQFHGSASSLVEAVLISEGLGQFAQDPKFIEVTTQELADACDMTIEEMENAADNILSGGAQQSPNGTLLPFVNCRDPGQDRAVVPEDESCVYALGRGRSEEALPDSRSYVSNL

Row | Compound | IC50 [nM]
1 | COCCOCCOCCOC(=O)C1=C(C)NC(C)=C(C(=O)OCCOCCOCCOC)C1c1ccccc1[N+](=O)[O-] [compound (2) from Example 1, 2,6-dimethyl 4-(2-nitrophenyl)-1,4-dihydropyridine-3,5-dicarboxylic acid dimethoxy tri(ethylene glycol)ester] | 160
2 | COCCOCCOC(=O)C1=C(C)NC(C)=C(C(=O)OCCOCCOC)C1c1ccccc1[N+](=O)[O-] [compound (6a) from Example 3, 2,6-dimethyl 4-(2-nitrophenyl)-1,4-dihydropyridine-3,5-dicarboxylic acid dimethoxy di(ethylene glycol)ester] | 67.4
3 | CCCCCCOCCOCCOC(=O)C1=C(C)NC(C)=C(C(=O)OCCOCCOCCCCCC)C1c1ccccc1[N+](=O)[O-] [compound (6c) from Example 3, 2,6-dimethyl 4-(2-nitrophenyl)-1,4-dihydropyridine-3,5-dicarboxylic acid dihexoxy di(ethylene glycol)Ester] | 55.6
4 | CCCCOCCOCCOC(=O)C1=C(C)NC(C)=C(C(=O)OCCOCCOCCCC)C1c1ccccc1[N+](=O)[O-] [compound (6b) from Example 3, 2,6-dimethyl 4-(2-nitrophenyl)-1,4-dihydropyridine-3,5-dicarboxylic acid dibutoxy di(ethylene glycol)ester] | 15.5
